Measured values from patent publication US20240309360A1, “TRANS-ACTIVATORS AND METHODS AND USE THEREOF” (THE GOVERNING COUNCIL OF THE UNIVERSITY OF TORONTO, priority 2021, published 2024).

Test system: EGFP reporter (7×TetO array, basal CMV promoter) in HEK293T reporter cell line
Assay: TAD-seq pooled activation screen of 60-aa fragments fused to PYL1
Format: cell-based, human
Conditions: for logFC high GFP / logFC medium GFP: log 2 fold change of counts, 100 μM ABA 48 hours; for logFC high GFP: sorted high GFP cells (top 1%) vs unsorted cells; for logFC medium GFP: sorted medium GFP cells (top 2-5%) vs unsorted cells; for Hit medium GFP: medium GFP population (top 2-5%); for Hit high GFP: high GFP population (top 1%); call rule not given here
Description: A fragment library of 75 activators identified in our screen was generated, using 60 amino-acid tiles every 20 aa such that every amino acid was represented by three different fragments (FIG. 3A). The pooled fragment library was fused to PYL1 and recruited to the same GFP reporter used in the original ORFeome screen (FIG. 3A). […] The GFP positive population was sorted into two independent replicates, and fragments in each population were quantified by sequencing. However, in contrast to the ORFeome screen, both high GFP cells (top 1%) and medium GFP cells (top 2-5%) were sorted to potentially identify transactivators of different strength.
Activation domain tiling library generation. A tiling library was generated from 75 proteins identified as activators in the ORFeome screen. Oligonucleotides containing a 5′ adapter […] (SEQ ID NO: 23) and a 3′ adapter […] (SEQ ID NO: 24) to generate a 5′ adapter ([…]) (SEQ ID NO: 11) and a 3′ adapter ([…]) (SEQ ID NO: 12) were synthesized as pooled libraries (Twist Biosciences). 6×50 μl PCR reactions were set up using NEBNext Ultra II Q5 master mix (New England Biolabs) with 5 nM oligos as template. PCR conditions were optimized to find the lowest cycle with a clean visible product at the expected 300 bp length. The thermocycling condition was an initial 30 s at 98° C., then 2 cycles of 98° C. for 10 s, 63° C. for 20 s, and 72° C. for 15 s, followed by 10 more cycles of 98° C. for 10 s and 72° C. for 30 s with a final extension at 72° C. for 5 min. Primers were designed to have Gateway compatible flanking sequences. The resulting libraries were gel extracted by QIAgen gel extraction kit after loading on a 2% TAE gel for 2 hrs at 60V and subsequently cloned into pDONR221 using 20 separate BP reactions in total of 5 μl reactions. The entry plasmid pool was transformed after an overnight reaction into DHSalpha competent E. coli and incubated overnight on LB agar plates containing kanamycin ([…]). Colonies were collected and plasmid DNA purified. 20 LR reactions were then set up as described in the previous section. Each reaction was transformed into NEB 10-beta chemically competent E. coli and grown on LB agar plates containing carbenicillin ([…]) overnight at 30° C. Colonies were counted to ensure >200-fold coverage at each step of cloning, pooled and maxiprepped.
Pooled activation screens. ORFeome and transactivation tiling libraries tagged at the C-terminus with PYL1 were packaged into lentiviral particles. A clonal EGFP reporter cell line stably co-expressing ABI-dCas9 and a gRNA targeting the promoter were transduced at low multiplicity of infection (MOI) with approximately 30% cell survival after puromycin (1 μg/mL) selection. Untransduced cells under the same condition were fully eliminated. Sufficient cells were transduced to maintain >500 fold coverage of the libraries. Recruitment was induced by treating cells with 100 μM abscisic acid (ABA, Sigma) for 48 hours. In parallel, a control batch of cells were treated with equal total volume of DMSO. Cells were then washed in PBS, treated with dissociation buffer (1 mM EDTA, 10 mM KCl, 150 mM NaCl, 5 mM sodium bicarbonate, 0.1% glucose) and resuspended in flow buffer (5 mM EDTA, 25 mM HEPES pH 7, 1% BSA, PBS). High GFP population for each library, top 1% for ORFeome and two bins of top 1% and the next 4% for the TAD screen, were sorted and their genomic DNA directly extracted using QIAmp DNA Blood Mini Kit (QIAGEN).
TAD sequencing. Performed nested PCR on the purified genomic DNA using primers targeting T7 promoter and PYL1 of the backbone vector in the first step creating a ˜470 bp product. Products of the first reaction were then pooled and amplified for an additional 10 steps using primers targeting outside the Gateway sites creating a ˜300 bp product. Libraries were quantified on Qubit dsDNA Broad Range kit and paired-end sequenced on an Illumina MIseq with a custom PAGE-purified R1 sequencing primer. […]

HSF1-20: 60-aa TAD-seq fragment of HSF1 (KNELSDHLDAMDSNLDNLQTMLSSHGFSVDTSALLDLFSPSVTVPDMSLPDLDSSLASIQ; listed as Homo sapiens)
logFC high GFP: 0.6234 | logFC medium GFP: 0.7077 | Hit medium GFP: hit

CITED2-11: 60-aa TAD-seq fragment of CITED2 (MPASVAHVPAAMLPPNVIDTDFIDEEVLMSLVIEMGLDRIKELPELWLGQNEFDFMTDFV; listed as Homo sapiens)
Hit high GFP: hit | logFC high GFP: 6.165 | logFC medium GFP: 0.9491

YAF2-6: 60-aa TAD-seq fragment of YAF2 (EKKDKVEKEKSEKETTSKKNSHKKTRPRLKNVDRSSAQHLEVTVGDLTVIITDFKEKTKS; listed as Homo sapiens)
Hit high GFP: hit | logFC high GFP: 4.316 | logFC medium GFP: 1.771 | Hit medium GFP: hit

ATXN7L3-4: 60-aa TAD-seq fragment of ATXN7L3 (FEIVDQPGLDIFGQVFNQWKSKECVCPNCSRSIAASRFAPHLEKCLGMGRNSSRIANRRI; listed as Homo sapiens)
logFC high GFP: 0.7641 | logFC medium GFP: 0.7514 | Hit medium GFP: hit

DDIT3-2: 60-aa TAD-seq fragment of DDIT3 (WYEDLQEVLSSDENGGTYVSPPGNEEEESKIFTTLDPASLAWLTEEEPEPAEVTSTSQSP; listed as Homo sapiens)
logFC high GFP: 1.138 | logFC medium GFP: 1.28 | Hit medium GFP: hit

SERTAD2-11: 60-aa TAD-seq fragment of SERTAD2 (SEAGTQKLDGPQESRADDSKLMDSLPGNFEITTSTGFLTDLTLDDILFADIDTSMYDFDP; listed as Homo sapiens)
Hit high GFP: hit | logFC high GFP: 2.48 | logFC medium GFP: 1.822 | Hit medium GFP: hit

NPAS4-31: 60-aa TAD-seq fragment of NPAS4 (DVPLVPEGLLTPEASPVKQSFFHYSEKEQNEIDRLIQQISQLAQGMDRPFSAEAGTGGLE; listed as Homo sapiens)
logFC high GFP: 1.22 | logFC medium GFP: 0.8563 | Hit medium GFP: hit

HSF1-21: 60-aa TAD-seq fragment of HSF1 (MLSSHGFSVDTSALLDLFSPSVTVPDMSLPDLDSSLASIQELLSPQEPPRPPEAENSSPD; listed as Homo sapiens)
logFC high GFP: 0.432 | logFC medium GFP: 0.8992 | Hit medium GFP: hit

RELB-2: 60-aa TAD-seq fragment of RELB (RRVARPPAAPELGALGSPDLSSLSLAVSRSTDELEIIDEYIKENGFGLDGGQPGPGEGLP; listed as Homo sapiens)
Hit high GFP: hit | logFC high GFP: 2.147 | logFC medium GFP: 1.711 | Hit medium GFP: hit

LIN9-25: 60-aa TAD-seq fragment of LIN9 (SRLTAILLQIKCLAEGGDLNSFEFKSLTDSLNDIKSTIDASNISCFQNNVEIHVAHIQSG; listed as Homo sapiens)
Hit high GFP: hit | logFC high GFP: 2.094 | logFC medium GFP: 1.08

HOXA2-5: 60-aa TAD-seq fragment of HOXA2 (RGSPVPAGALQPPEYPWMKEKKAAKKTALLPAAAAAATAAATGPACLSHKESLEIADGSG; listed as Homo sapiens)
logFC high GFP: 1.684 | logFC medium GFP: 2.311 | Hit medium GFP: hit

ATF6-1: 60-aa TAD-seq fragment of ATF6 (MGEPAGVAGTMESPFSPGLFHRLDEDWDSALFAELGYFTDTDELQLEAANETYENNFDNL; listed as Homo sapiens)
Hit high GFP: hit | logFC high GFP: 3.145 | logFC medium GFP: 1.563 | Hit medium GFP: hit

BRD8-24: 60-aa TAD-seq fragment of BRD8 (IDGKEELDLAEKMDIAVSYTGEELDFETVGDIIAIIEDKVDDHPEVLDVAAVEAALSFCE; listed as Homo sapiens)
Hit high GFP: hit | logFC high GFP: 1.593 | logFC medium GFP: 1.566 | Hit medium GFP: hit

NPAS4-37: 60-aa TAD-seq fragment of NPAS4 (DPSEEWGSGDPEAEGPGGAPSPCNNLSPEDHSFLEDLATYETAFETGVSAFPYDGFTDEL; listed as Homo sapiens)
Hit high GFP: hit | logFC high GFP: 1.645 | logFC medium GFP: 0.7019

ATMIN-24: 60-aa TAD-seq fragment of ATMIN (NPGPDTQLPSGPAQNPGIDFDIEEFFSASNIQTQTEESELSTMTTEPVLESLDIETQTDF; listed as Homo sapiens)
logFC high GFP: 1.233 | logFC medium GFP: 0.988 | Hit medium GFP: hit

CITED1-7: 60-aa TAD-seq fragment of CITED1 (LQNWDFGAQAGGAESLSPSAGAQSPAIIDSDPVDEEVLMSLVVELGLDRANELPELWLGQ; listed as Homo sapiens)
Hit high GFP: hit | logFC high GFP: 4.314 | logFC medium GFP: 1.597 | Hit medium GFP: hit

RELB-3: 60-aa TAD-seq fragment of RELB (SSLSLAVSRSTDELEIIDEYIKENGFGLDGGQPGPGEGLPRLVSRGAASLSTVTLGPVAP; listed as Homo sapiens)
Hit high GFP: hit | logFC high GFP: 1.768 | logFC medium GFP: 1.803 | Hit medium GFP: hit

BTBD18-25: 60-aa TAD-seq fragment of BTBD18 (EEYRITSAAATSELEEILDFMLCGSDIEPPIGSLESPGAEGCRTPTYHLTETGKNWIEGE; listed as Homo sapiens)
logFC high GFP: 1.471 | logFC medium GFP: 1.413 | Hit medium GFP: hit

ZXDC-16: 60-aa TAD-seq fragment of ZXDC (SLVVPSGGRPGPAPAAGVQCGAQGVQVQLVQDDPSGEGVLPSARGPATFLPFLTVDLPVY; listed as Homo sapiens)
logFC high GFP: 0.4785 | logFC medium GFP: 0.7293 | Hit medium GFP: hit

SS18L2-2: 60-aa TAD-seq fragment of SS18L2 (QETIQRLLEENDQLIRCIVEYQNKGRGNECVQYQHVLHRNLIYLATIADASPTSTSKAME; listed as Homo sapiens)
logFC high GFP: 1.012 | logFC medium GFP: 1.166 | Hit medium GFP: hit

BRD8-23: 60-aa TAD-seq fragment of BRD8 (KEECFRSGVAEAPVGSKAPSIDGKEELDLAEKMDIAVSYTGEELDFETVGDIIAIIEDKV; listed as Homo sapiens)
logFC high GFP: 0.5884 | logFC medium GFP: 0.5915 | Hit medium GFP: hit

C11orf74-1: 60-aa TAD-seq fragment of C11orf74 (MSAHMSGLEIMDEDQLIKDVLDKFLNCHEQTYDEEFLNTFTHLSQDLLLLPGEVEQDVST; listed as Homo sapiens) [Fragment C11orf74-1]
Hit high GFP: hit | logFC high GFP: 2.356 | logFC medium GFP: 1.551 | Hit medium GFP: hit

SPDYE4-4: 60-aa TAD-seq fragment of SPDYE4 (SEEELEEELELERAPEPEDTWVVETLCGLKMKLKRKRASSVLPEHHEAFNRLLGDPVVQK; listed as Homo sapiens)
Hit high GFP: hit | logFC high GFP: 4.316 | logFC medium GFP: 1.914 | Hit medium GFP: hit

KLF6-1: 60-aa TAD-seq fragment of KLF6 (MDVLPMCSIFQELQIVHETGYFSALPSLEEYWQQTCLELERYLQSEPCYVSASEIKFDSQ; listed as Homo sapiens)
Hit high GFP: hit | logFC high GFP: 5.453 | logFC medium GFP: 1.868 | Hit medium GFP: hit
